In series [1] the target is Cytochrome P450 2C19 (Homo sapiens, UniProt P33261). The series is described as follows: Cytochrome panel assay with activity outcomes. Panel member name: p450-cyp2c19 Compounds with AC50 equal or less than 10 uM are considered active. It is filed as functional.
Series [2] deals with Cytochrome P450 2D6 (Homo sapiens, UniProt P10635).
Series [3] can be described thus: inhibitors of intracellular T. cruzi replication, confirmation, NIH3T3 host cells, beta-gal luminescence (AID 2044).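 Further: intracellular parasites grown in NIH/3T3 mouse fibroblasts as host cells; luminescent beta-galactosidase reporter signal from transgenic T. cruzi replicating inside host cells; inhibitors lower the luminescence signal.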 The series is classed as functional, cell-based.
Series [4] in a line: cytotoxicity toward NIH3T3 fibroblasts, dose response, counter-screen, cell-based, ATP luminescence, mouse fibroblasts (AID 2010).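 Further: cells exposed to compound for about 90 hours before reading.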 The series is classed as functional. For orientation: Counterscreens check selectivity or assay interference.
Series [5] is described as follows: growth suppression of PTEN-null colon cells, dose response, cell-based, HCT116 PTEN knockout (AID 1047).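 Further: HCT116 colon tumor cells with PTEN knocked out; cells exposed to compound for 60 hours before readout; potency for loss of cell viability measured by luminescence.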 It is filed as functional.
A short description of series [6]: growth suppression of beta-catenin-knockout colon cells, dose response, cell-based, HCT116, human colon tumor (AID 1045).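 Further: HCT116 colon tumor cells with beta catenin knocked out; cells exposed to compound for 60 hours.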 It is filed as functional.
Series [7] concerns the target T1, RNA-binding protein pos-1 (Caenorhabditis elegans, UniProt G5EF15).
T1 sequence (G5EF15 whole entry): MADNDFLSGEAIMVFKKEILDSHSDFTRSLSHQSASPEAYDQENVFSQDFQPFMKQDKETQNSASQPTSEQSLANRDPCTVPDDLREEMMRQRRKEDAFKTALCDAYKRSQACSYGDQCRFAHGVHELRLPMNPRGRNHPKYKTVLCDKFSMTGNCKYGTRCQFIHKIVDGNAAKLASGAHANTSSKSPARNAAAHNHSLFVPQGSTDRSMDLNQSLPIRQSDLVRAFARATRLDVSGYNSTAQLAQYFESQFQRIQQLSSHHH
Nature of the series: inhibitors of POS-1/mex-3 RNA binding, dose response, biochemical, fluorescence polarization (AID 1964).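 Further: purified POS-1 fused to maltose binding protein made in E. coli; potency of compounds blocking POS-1 binding to fluorescent RNA.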 Background: In fluorescence polarisation assays a small probe gives low polarisation when free and higher when bound to something large.

The target in series [8] is T2, Zinc finger protein mex-5 (Caenorhabditis elegans, UniProt Q9XUB2).
T2 sequence (Q9XUB2 whole entry): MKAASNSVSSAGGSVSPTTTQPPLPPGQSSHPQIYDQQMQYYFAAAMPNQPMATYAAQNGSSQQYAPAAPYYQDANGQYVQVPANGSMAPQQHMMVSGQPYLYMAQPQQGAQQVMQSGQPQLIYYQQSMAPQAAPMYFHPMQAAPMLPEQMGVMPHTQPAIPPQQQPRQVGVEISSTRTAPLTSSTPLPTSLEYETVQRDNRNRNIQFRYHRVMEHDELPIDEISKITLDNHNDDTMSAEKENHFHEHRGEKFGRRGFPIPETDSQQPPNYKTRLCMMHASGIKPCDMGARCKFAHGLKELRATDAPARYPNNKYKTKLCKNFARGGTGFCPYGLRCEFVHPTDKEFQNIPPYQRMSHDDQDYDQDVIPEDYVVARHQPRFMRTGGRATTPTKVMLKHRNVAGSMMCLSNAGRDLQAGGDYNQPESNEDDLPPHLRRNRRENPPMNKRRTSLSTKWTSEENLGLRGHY
The series is described as follows: MEX-5/TCR-2 RNA interaction inhibitors, dose response, biochemical, C. elegans, fluorescence polarization (AID 1960).

Series [9] concerns Streptococcus. The series is described as follows: Group A Streptococcus viability loss, dose response, counter-screen for streptokinase expression inhibitor project, luminescence, BacTiterGlo (AID 1915).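 Further: potency for reduction of bacterial viability or growth.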 The series is classed as functional, organism-based.
The test system of series [10] is Streptococcus sp. 'group A'. Nature of the series: growth inhibition of control SK(-) GAS strain, dose response, counter-screen for streptokinase expression inhibitor project, luminescence, kanamycin, BacTiterGlo, confirmation (AID 1900). It is filed as functional, organism-based.

Molecules are shown by their SMILES. Calls of active or inactive are those of the source.

Sequence of Cytochrome P450 2C19 (P33261 whole entry): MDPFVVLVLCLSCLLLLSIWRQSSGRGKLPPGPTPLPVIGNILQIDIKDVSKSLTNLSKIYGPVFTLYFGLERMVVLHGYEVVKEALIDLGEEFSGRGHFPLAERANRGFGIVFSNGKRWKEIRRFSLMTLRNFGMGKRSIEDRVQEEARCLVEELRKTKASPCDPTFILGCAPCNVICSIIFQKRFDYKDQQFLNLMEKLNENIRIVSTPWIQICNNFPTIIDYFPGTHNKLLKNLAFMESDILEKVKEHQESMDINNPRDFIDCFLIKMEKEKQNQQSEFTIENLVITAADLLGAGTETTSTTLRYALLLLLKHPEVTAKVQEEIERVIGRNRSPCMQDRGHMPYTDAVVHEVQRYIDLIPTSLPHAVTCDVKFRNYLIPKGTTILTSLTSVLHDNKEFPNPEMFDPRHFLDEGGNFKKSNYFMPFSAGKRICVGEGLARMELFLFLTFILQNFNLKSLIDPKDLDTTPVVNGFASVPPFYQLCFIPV
Sequence of Cytochrome P450 2D6 (P10635 whole entry): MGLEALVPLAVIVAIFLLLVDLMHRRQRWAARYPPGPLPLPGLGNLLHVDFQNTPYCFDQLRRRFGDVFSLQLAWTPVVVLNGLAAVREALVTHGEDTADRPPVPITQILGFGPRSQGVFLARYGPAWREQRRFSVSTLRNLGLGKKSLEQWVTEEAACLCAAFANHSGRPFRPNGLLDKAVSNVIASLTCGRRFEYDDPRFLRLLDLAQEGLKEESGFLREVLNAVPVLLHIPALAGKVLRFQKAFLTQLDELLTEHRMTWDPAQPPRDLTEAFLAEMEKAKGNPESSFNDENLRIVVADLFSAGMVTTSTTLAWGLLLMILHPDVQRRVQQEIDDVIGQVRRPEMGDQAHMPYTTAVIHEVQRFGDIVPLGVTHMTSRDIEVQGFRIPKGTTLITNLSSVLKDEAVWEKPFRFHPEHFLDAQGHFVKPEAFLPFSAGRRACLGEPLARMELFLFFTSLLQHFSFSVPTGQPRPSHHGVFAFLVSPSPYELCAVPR

What is called AC50 is the midpoint of the concentration-response curve, whichever way the signal moves. As to `Ic1cncc(OC[C@@H]2CCN2)c1`, the AC50 in series [1] (read-out: AC50) was 15.8 µM (inconclusive); in series [2], 39.8 µM (inconclusive).

A word on the EC50: it is the concentration giving half of the maximal effect. Regarding `CCCCCCC1CC(C)(C(=O)CNc2nncs2)OC1=O` (stereo unspecified), the EC50 is 1.3 µM (active) in series [3] and 23.8 µM (active) in series [4].

Consider `O=C(NC1CCCCC1)C(c1ccc(F)cc1)N(C(=O)Cc1ccsc1)c1ccc(F)cc1` (stereo unspecified), for which the EC50 in series [3] and in series [4] was > 60 µM (not active) each time.

As for `CC(=O)Nc1nc(-c2ccccc2)nc(-c2ccccc2OC(C)=O)n1`, the EC50 in [5] is 73.1 µM (active); in [6] it was 118 µM (active).

`Cc1ccc(CCNC(=O)CN2C(=O)COc3ccccc32)cc1`: the EC50 in [3] is 16.4 µM (active); in [4] it was > 60 µM (not active).

Turning to `CN1CCN(c2ccc(S(=O)(=O)N3CCCCC3)cc2NC(=O)c2ccc(C#N)cc2)CC1`, the EC50 was 1.14 µM (active) in [3] and > 60 µM (not active) in series [4].

Take `C#CCN1C(=O)C(O)(CC(=O)c2ccc3c(c2)OCCO3)c2ccccc21` (stereo unspecified): the EC50 in series [5] and in [6] was 29.7 µM (active) each time.

Regarding `Cc1noc(C)c1-c1nc(NCc2cccs2)c2ccccc2n1`, the AC50 in [2] is 3.98 µM (inconclusive).

Take `COc1ccc(CNc2cc(-c3cccnc3)ncn2)c(OC)c1`: in [2], the AC50 is 39.8 µM (inconclusive).

`CC(C)c1ccc(/C=C/C(=O)Nc2nc3ccc([N+](=O)[O-])cc3s2)cc1`: the results for the EC50 in series [5] and in series [6] were 23.3 µM (active) and 41.3 µM (active), respectively.

Consider `Cc1ccc(NC(=O)CCN2C(=O)c3ccncc3C2=O)cc1`, for which the AC50 in [1] (read-out: AC50) is 39.8 µM (inconclusive).

Turning to `CCc1ccccc1N1C(=O)/C(=C/c2ccc(N3CCN(C)CC3)o2)C(=O)NC1=S`, the EC50 in [7] was > 300 µM (inconclusive).

As for `CCCCCCn1c(N)c(C(=O)NCCN2CCOCC2)c2nc3ccccc3nc21`, the EC50 in series [5] was 17.7 µM (active); in [6], 19.7 µM (active).

For `CCOC(=O)C1=NNC2(c3ccc(Cl)cc3)C(=O)N(c3cc(C)cc(C)c3)C(=O)C12` (stereo unspecified), in series [1] (read-out: AC50), the AC50 was 2.51 µM (inconclusive).

Take `CC(=O)C1=C(c2ccccc2)NC(=O)NC1c1ccc(O)c(O)c1` (stereo unspecified): the values for the EC50 in series [8] and in series [7] were 43.4 µM (active) and > 300 µM (not active), respectively.

On to `O=C(NCc1ccccc1)C1=C[C@@H](c2ccc(C(F)(F)F)cc2)C[C@@H](OCc2ccc(CO)cc2)O1`, for which the EC50 was 0.669 µM (active) in [3] and > 60 µM (not active) in [4].

For the compound `COc1ccc(CCn2c(=N)c(C(=O)NC3CCCCC3)cc3c(=O)n4ccccc4nc32)cc1`, the EC50 in series [8] was 8.45 µM (inconclusive); in series [7] it was 21.6 µM (active).

In the case of `CCCCCCCC(=O)NNC(=O)c1c(O)c2ccccc2n(CC)c1=O`, the EC50 was 6.17 µM (active) in series [9] and 2.31 µM (active) in [10].

`COc1ccc(Cl)cc1C(=O)C1CCCN(Cc2cnc(N3CCOCC3)s2)C1` (stereo unspecified): the EC50 in [3] is 0.135 µM (active); in series [4], > 60 µM (not active).

On to `O=C(/C=C/c1ccco1)NC(=S)NNC(=O)c1ccco1`, for which the figures for the EC50 in series [8] and in [7] were 15.7 µM (active) and 98.1 µM (active), respectively.

With `Cc1ncn(-c2ccccc2O)c1C`, the AC50 in [2] is 3.16 µM (inconclusive).

Take `Cc1ccc(C)c(-c2cc(C(=O)NCc3cccs3)c3ccccc3n2)c1`: the half-maximal activity concentration (AC50) in [1] (read-out: AC50) is 3.55 µM (inconclusive); in series [2], 14.1 µM (inconclusive).

With `Cc1cc(N2C(=O)C(O)=C(C(=O)c3ccco3)C2c2ccc(O)cc2)no1` (stereo unspecified), the concentration at half-maximal activity (AC50) in series [1] (read-out: AC50) is 35.5 µM (inconclusive).

Take `Cc1ccc(-n2c(N)c(C(=O)Nc3c(C)n(C)n(-c4ccccc4)c3=O)c3nc4ccccc4nc32)cc1C`: the EC50 in [5] is 8.61 µM (active); in series [6], 11.5 µM (active).

Regarding `Cc1ccc(-c2c[n+](CC(=O)c3ccc(Br)cc3)c3n2CCCCC3)cc1`, the EC50 in [3] was 0.465 µM (active); in series [4] it was > 60 µM (not active).

Regarding `COCc1cc(C)nc(SCC(=O)Nc2cc(C(F)(F)F)ccc2N2CCOCC2)c1C#N`, the EC50 in [3] was 0.807 µM (active); in [4] it was > 60 µM (not active).

Turning to `O=C(Nc1ccccc1C(=O)Nc1nnc(C(F)(F)F)s1)c1ccccc1Cl`, the EC50 in [9] was 3.2 µM (active); in series [10], 1.36 µM (active).

Take `Oc1cccc2ccc(/C=C/c3ccc(Br)s3)nc12`: the EC50 in series [9] is 4.33 µM (active); in series [10], 2.56 µM (active).

For `Cc1cc(C)nc(NN2C(=O)C=CC2=O)n1`, the EC50 was 40.8 µM (active) in series [8] and > 300 µM (not active) in [7].

For the compound `COc1cccc(Cn2c(=O)cnc3cnc(Nc4cccc(OC)c4)nc32)c1`, the AC50 in series [2] was 39.8 µM (inconclusive).

Take `CN(CCOc1ccccc1)CC(=O)Nc1ccc(Cl)c(S(=O)(=O)N(C)C)c1`: the EC50 in series [3] is 0.503 µM (active); in [4], > 60 µM (not active).

With `C=CCN1C(=O)NC(=O)/C(=C(/CC)NC2CC2)C1=O`, the half-maximal activity concentration (AC50) in series [1] (read-out: AC50) was 22.4 µM (inconclusive); in series [2], 1.12 µM (inconclusive).

On to `NS(=O)(=O)c1ccc2c(c1)C1C=CCC1C(C1CC=CCC1)N2` (stereo unspecified), for which the EC50 in series [8] was 20.7 µM (inconclusive); in [7] it was 18.3 µM (active).

As for `Cc1c(C(=O)O)cccc1-n1c(C)cc(/C=C(/C#N)C(=O)NCc2ccccc2)c1C`, the EC50 in series [8] and in [7] was > 300 µM (not active) throughout.

On to `CCOc1ccc2ccccc2c1C1NC(=O)N(C)C(C)=C1C(=O)OCCOC` (stereo unspecified), for which the EC50 in series [8] and in series [7] was > 300 µM (not active) each time.

Turning to `COC(=O)N1CCC2(CCN(C(=O)Nc3ccccc3)CC2)CC1`, the AC50 in series [1] (read-out: AC50) was 20 µM (inconclusive).

Regarding `COc1ccc(CNc2ccc3c(c2)CCC3)cc1OC`, the figures for the EC50 in [3] and in series [4] were 15.4 µM (active) and > 30 µM (not active), respectively.

For `NCCNc1ncnc2ccc(Cl)cc12`, the concentration at half-maximal activity (AC50) in series [2] is 3.16 µM (inconclusive).

With `CN(C)CCCn1c2ccccc2c2cnccc21`, the AC50 in series [2] was 3.98 µM (inconclusive).

For the compound `Fc1ccc(SCCc2ccncc2)cc1`, the EC50 is 1.27 µM (active) in [3] and > 30 µM (not active) in series [4].

With `CCC(C)NCCOCCOc1ccc(Br)cc1` (stereo unspecified), the figures for the EC50 in [3] and in [4] were 0.106 µM (active) and > 60 µM (not active), respectively.

Turning to `CN(CCCNC(=O)c1ccc(/C=N/O)nc1)CCCN(C)Cc1ccccc1`, in [1], the AC50 result is given as “inconclusive”.

`FC(F)(F)COc1nc(N/N=C/c2cccnc2)nc(N2CCCCC2c2ccccn2)n1` (stereo unspecified): the EC50 in series [3] is 2.37 µM (active); in series [4], > 60 µM (not active).

For the compound `Cc1nn(-c2ccccn2)c2c1C(c1ccccc1Cl)C1=C(N2)c2ccccc2C1=O` (stereo unspecified), the EC50 in series [5] was 24.7 µM (active); in series [6] it was 24.9 µM (active).

(Values after ChEMBL document CHEMBL1201862, “PubChem BioAssay data set” (2004).)
